Results: PubChem BioAssay (NCI)
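Cells were grown in 96-well plates and exposed to each compound for 48 hours at five concentrations; endpoints were interpolated linearly between bracketing concentrations, or set to the highest concentration if not reached. GI50 marks 50% less growth. TGI denotes the concentration required for complete inhibition of growth.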

Key:
Test in all cases: NCI anticancer screen, dose series, 48 h
NCI/ADR-RES ovarian = test system: NCI/ADR-RES ovarian
NCI-H522 lung = test system: NCI-H522 lung
OVCAR-3 ovarian = test system: OVCAR-3 ovarian
SK-MEL-5 melanoma = test system: SK-MEL-5 melanoma
TK-10 renal = test system: TK-10 renal
DU-145 prostate = test system: DU-145 prostate
A549 NSCLC = test system: A549 NSCLC
HT29 colon = test system: HT29 colon
SN12C renal = test system: SN12C renal
SF-539 CNS = test system: SF-539 CNS
MOLT-4 leukemia = test system: MOLT-4 leukemia
HOP-92 NSCLC = test system: HOP-92 NSCLC
HCT-116 colon = test system: HCT-116 colon
K-562 leukemia = test system: K-562 leukemia
MDA-MB-435 = test system: MDA-MB-435
SNB-75 CNS = test system: SNB-75 CNS
MCF7 breast = test system: MCF7 breast
MALME-3M melanoma = test system: MALME-3M melanoma
PC-3 prostate = test system: PC-3 prostate
A498 renal = test system: A498 renal
UO-31 renal = test system: UO-31 renal
RXF 393 renal = test system: RXF 393 renal
OVCAR-8 ovarian = test system: OVCAR-8 ovarian
BT-549 breast = test system: BT-549 breast
NCI-H460 lung = test system: NCI-H460 lung
SF-295 CNS = test system: SF-295 CNS
OVCAR-4 ovarian = test system: OVCAR-4 ovarian
SNB-19 CNS = test system: SNB-19 CNS
SK-MEL-2 melanoma = test system: SK-MEL-2 melanoma
LOX IMVI melanoma = test system: LOX IMVI melanoma
HS 578T breast = test system: HS 578T breast
CCRF-CEM leukemia = test system: CCRF-CEM leukemia
NCI-H23 lung = test system: NCI-H23 lung
HOP-62 NSCLC = test system: HOP-62 NSCLC
U251 CNS = test system: U251 CNS
KM12 colon = test system: KM12 colon
NCI-H226 lung = test system: NCI-H226 lung
SR leukemia = test system: SR leukemia
CAKI-1 renal = test system: CAKI-1 renal
T-47D breast = test system: T-47D breast
SW-620 colon = test system: SW-620 colon
HCT-15 colon = test system: HCT-15 colon
ACHN renal = test system: ACHN renal
EKVX NSCLC = test system: EKVX NSCLC
786-0 renal = test system: 786-0 renal
MDA-MB-231 breast = test system: MDA-MB-231 breast
MDA-MB-468 breast = test system: MDA-MB-468 breast
M14 melanoma = test system: M14 melanoma
SF-268 CNS = test system: SF-268 CNS
HL-60(TB) leukemia = test system: HL-60(TB) leukemia
OVCAR-5 ovarian = test system: OVCAR-5 ovarian
UACC-62 melanoma = test system: UACC-62 melanoma
IGROV1 ovarian = test system: IGROV1 ovarian
HCC-2998 colon = test system: HCC-2998 colon
SK-OV-3 ovarian = test system: SK-OV-3 ovarian
COLO 205 colon = test system: COLO 205 colon
UACC-257 melanoma = test system: UACC-257 melanoma
SK-MEL-28 melanoma = test system: SK-MEL-28 melanoma
RPMI-8226 leukemia = test system: RPMI-8226 leukemia

## C=CC(=O)Nc1nc(-c2cccc(NS(=O)(=O)c3cccc4c(N(C)C)cccc34)c2)cs1
NCI/ADR-RES ovarian
  GI50: 3.78 µM
  TGI: 18.3 µM
NCI-H522 lung
  GI50: 2750 nM
  TGI: 11.9 µM
OVCAR-3 ovarian
  GI50: 2100 nM
  TGI: 10.5 µM
SK-MEL-5 melanoma
  GI50: 6.19 µM
  TGI: 15.8 µM
TK-10 renal
  GI50: 3.07 µM
  TGI: 10.6 µM
DU-145 prostate
  GI50: 5.4 µM
  TGI: 15.2 µM
A549 NSCLC
  GI50: 9.27 µM
  TGI: 21.7 µM
HT29 colon
  GI50: 2960 nM
  TGI: 12.2 µM
SN12C renal
  GI50: 4.56 µM
  TGI: 14.5 µM
SF-539 CNS
  GI50: 1790 nM
  TGI: 6.03 µM
MOLT-4 leukemia
  GI50: 2420 nM
  TGI: 12.5 µM
HOP-92 NSCLC
  GI50: 6.16 µM
  TGI: 16.4 µM
HCT-116 colon
  GI50: 2380 nM
  TGI: 10.5 µM
K-562 leukemia
  GI50: 3.15 µM
  TGI: 74.8 µM
MDA-MB-435
  GI50: 3.02 µM
  TGI: 13.9 µM
SNB-75 CNS
  GI50: 1860 nM
  TGI: 10.1 µM
MCF7 breast
  GI50: 2710 nM
  TGI: 11.2 µM
MALME-3M melanoma
  GI50: 8.53 µM
  TGI: 17.6 µM
PC-3 prostate
  GI50: 4.7 µM
  TGI: 19.7 µM
A498 renal
  GI50: 8.83 µM
  TGI: 18.1 µM
UO-31 renal
  GI50: 5.43 µM
  TGI: 15.1 µM
RXF 393 renal
  GI50: 2740 nM
  TGI: 11.7 µM
OVCAR-8 ovarian
  GI50: 7.94 µM
  TGI: 22.5 µM
BT-549 breast
  GI50: 2720 nM
  TGI: 9.07 µM
NCI-H460 lung
  GI50: 7.81 µM
  TGI: 18.7 µM
SF-295 CNS
  GI50: 9.01 µM
  TGI: 18.8 µM
OVCAR-4 ovarian
  GI50: 8.29 µM
  TGI: 17.8 µM
SNB-19 CNS
  GI50: 10.2 µM
  TGI: 19.8 µM
SK-MEL-2 melanoma
  GI50: 9.35 µM
  TGI: 19.3 µM
LOX IMVI melanoma
  GI50: 1610 nM
  TGI: 4.24 µM
HS 578T breast
  GI50: 4.06 µM
  TGI: 26.7 µM
CCRF-CEM leukemia
  GI50: 1690 nM
  TGI: 5.33 µM
NCI-H23 lung
  GI50: 10.4 µM
  TGI: 20.8 µM
HOP-62 NSCLC
  GI50: 11.4 µM
  TGI: 22.2 µM
U251 CNS
  GI50: 9.04 µM
  TGI: 18.9 µM
KM12 colon
  GI50: 6.28 µM
  TGI: 18 µM
NCI-H226 lung
  GI50: 10.9 µM
  TGI: 25.8 µM
SR leukemia
  GI50: 2000 nM
  TGI: 20.3 µM
CAKI-1 renal
  GI50: 3.74 µM
  TGI: 13.2 µM
T-47D breast
  GI50: 4.64 µM
  TGI: 17.7 µM
SW-620 colon
  GI50: 2490 nM
  TGI: 10.2 µM
HCT-15 colon
  GI50: 2770 nM
  TGI: 11 µM
ACHN renal
  GI50: 3.87 µM
  TGI: 13.3 µM
EKVX NSCLC
  GI50: 10.5 µM
  TGI: 20.5 µM
786-0 renal
  GI50: 2600 nM
  TGI: 11.7 µM
MDA-MB-231 breast
  GI50: 3.75 µM
  TGI: 13.2 µM
MDA-MB-468 breast
  GI50: 1960 nM
  TGI: 6.71 µM
M14 melanoma
  GI50: 4.34 µM
  TGI: 16 µM
SF-268 CNS
  GI50: 5.92 µM
  TGI: 18.2 µM
HL-60(TB) leukemia
  GI50: 2620 nM
  TGI: 14.7 µM
OVCAR-5 ovarian
  GI50: 9.28 µM
  TGI: 18.6 µM
UACC-62 melanoma
  GI50: 3.74 µM
  TGI: 13.1 µM
IGROV1 ovarian
  GI50: 7.67 µM
  TGI: 16.4 µM
HCC-2998 colon
  GI50: 9.22 µM
  TGI: 18.7 µM
SK-OV-3 ovarian
  GI50: 14 µM
  TGI: 25.9 µM
COLO 205 colon
  GI50: 9.08 µM
  TGI: 25.3 µM
UACC-257 melanoma
  GI50: 9.31 µM
  TGI: 19.4 µM
SK-MEL-28 melanoma
  GI50: 5.99 µM
  TGI: 15.3 µM
RPMI-8226 leukemia
  GI50: 2100 nM
  TGI: 11.3 µM
